# Reference: US20080318992A1, “METHOD OF USING A PKC INHIBITOR TO REVERSE PREFRONTAL CORTICAL DECLINES” (YALE UNIVERSITY, priority 2007, published 2008)
# Like-named read-outs stand apart in the source and are kept apart here.
# Legend:
# aged rhesus monkeys = assay: Spatial delayed response task (working memory) in aged rhesus monkeys; type: in vivo, rhesus monkeys (Macaca mulatta); conditions: for delayed response performance: 1 h prior to testing
# Excerpt: Performance on this task is reliant upon the integrity of the dorsolateral prefrontal cortex (Goldman-Rakic, 1987) and is consistently impaired in aged rhesus monkey (Bartus, et al., 1978; Rapp and Amaral, 1989).
# The present study used 13 aged female rhesus monkeys (Macaca mulatta) ranging in age from 18 to 35 years at the time of testing. Actual birthdates were not available for several of the wild-caught animals and ages were estimated based on health records, teeth, and known history; several had been in the Yale University colony for more than 15 years. Monkeys were individually housed and maintained on a diet of Purina monkey chow (St. Louis, Mo.) supplemented with fruit.
# Animals were tested at the same time of day immediately prior to feeding. Highly palatable food rewards (e.g., peanuts, raisins, or chocolate chips) were utilized during testing to minimize the need for dietary regulation. Animals were tested twice a week with 3-4 days separating each test session (e.g., Monday and Thursday). Cognitive testing of monkeys occurred in a Wisconsin General Testing Apparatus (WGTA) situated in a sound-attenuating room. Background masking noise (60 dB, wideband) was used to minimize auditory distractions.
# The monkeys were trained on the spatial delayed response task as described previously (Arnsten, A. F., et al., J. Neurosci. (1988) δ: 4287-4298). For the delayed response task, the animal watched as the experimenter baited one of several food-wells with a food reward. The number of food-wells varied from two to four wells, depending on the monkey's performance level and experience with the task. Care was taken by the experimenter to ensure that the animal attended the baiting procedure. After baiting, food-wells were covered with identical plaques, and an opaque screen was lowered between the animal and the food-wells for a specified delay. At the end of the delay, the screen was raised and the animal was allowed to choose. Reward was quasi-randomly distributed between the wells. Five delay lengths (referred to as delays A through E) were quasi-randomly distributed over 30 trials. The shortest of these delays was ˜2 s (the “0” s, A delay). The remaining delays were titrated for individual monkeys such that each monkey maintained a baseline performance of 60-73% correct. For example, the delays for one animal might be A=0, B=5, C=10, D=15, and E=20 s.
# Data were analyzed by comparing performance following treatment using a one-way repeated-measures ANOVA. […] Values were represented as means±SEM. Linear relationships between treatment response at the optimal dose of CHEL and age of the monkey (years) were analyzed in 10 monkeys with known birthdates using Pearson's test. In all cases, an α level of 0.05 was considered statistically significant.
# All animals received all treatments conditions, with at least 7 days between treatments. The order of treatment administration was quasi-randomized.
# [1] = systemic administration; cited from earlier work
# [2] = system: rat medial prefrontal cortex; conditions: systemic administration and infusions directly to the rat medial prefrontal cortex via implanted cannula; cited from earlier work
# aged rats = conditions: for change in percent-correct from mean 2-day baseline: 45 min prior to testing, N=5 aged rats
smiles,measurement,setting,value
"COc1ccc2c(c[n+](C)c3c4cc5c(cc4ccc23)OCO5)c1OC [CHEL, Chelerythrine]",performance of 3 oldest monkeys better than 3 youngest monkeys,aged rhesus monkeys; 0.3 μg/kg oral,> 20%
same,delayed response performance,"aged rhesus monkeys; 0.3 μg/kg oral, N=13 aged monkeys, p=0.013 vs vehicle",74.5±2.6 % correct
same,spatial working memory performance 4 hours after oral administration,"aged rhesus monkeys; 0.3 ug/kg oral, 4 hrs after administration, p=0.012 compared to vehicle (FIG. 5)",improved performance
same,performance of the 3 oldest monkeys,"aged rhesus monkeys; 0.3 μg/kg oral, 3 oldest monkeys, mean age 32.3 years",85.6±4.4 % correct
same,performance of the 3 youngest aged monkeys,"aged rhesus monkeys; 0.3 μg/kg oral, 3 youngest aged monkeys, mean age 20.7 years",65.0±4.8 % correct
same,delayed response performance,"aged rhesus monkeys; 3.0 μg/kg oral, N=13, p=0.151 vs vehicle",71.5±1.9 % correct
same,delayed response performance,"aged rhesus monkeys; 30.0 μg/kg oral, N=13, p=0.406 vs vehicle",66.1±1.8%
same,spatial working memory performance at best dose,"aged rhesus monkeys; individual best dose for all monkeys, oral, 4 hours, p=0.001 (FIG. 5)",reliably improved performance
same,serious deficits at high doses,"aged rhesus monkeys; oral, even at high doses (150 ug/kg), 4 hours (FIG. 5)",no serious deficits were found
same,working memory impairments following administration of cirazoline,[1],reverse working memory impairments
same,stress induced working memory impairments,[2],capable of reversing stress induced working memory impairments
same,change in percent-correct from mean 2-day baseline,"aged rats; 0.3 mg/kg subcutaneous, p=0.691 vs vehicle",8.6±5.4 % improvement
same,change in percent-correct from mean 2-day baseline,"aged rats; 1.0 mg/kg subcutaneous, p=0.047 vs vehicle",26±6.4 % improvement
same,performance times (non-specific motor effects),"aged rats; 0.3 or 1.0 mg/kg subcutaneous, data not shown",performance times did not differ as a result of treatment
